This note sets out measurements from patent US20200131669A1, “CYCLIC PEPTIDE COMPOUND HAVING HIGH MEMBRANE PERMEABILITY, AND LIBRARY CONTAINING SAME” (Chugai Seiyaku Kabushiki Kaisha, priority 2017, published 2020).

Starred links: 1 amine or outer side, 2 acyl side, 3 side chain; linkers in the order of their positions; H or OH if unused. Positions of bridges follow the written chain, without caps; N, C: chain ends. Non-standard residues stand in square brackets, D forms with d. Residues, ends and D or L forms follow the SMILES beside them. *: point of attachment. 3Pal(6-NMe2) = CN(C)c1ccc(C[C@H](N)C(=O)O)cn1; NMePhe(3-Cl) = CN[C@@H](Cc1cccc(Cl)c1)C(=O)O; hPhe(4-Cl) = N[C@@H](CCc1ccc(Cl)cc1)C(=O)O; X14 = O=C([C@H](CCc1ccccc1Cl)N[*:1])[*:2]; N(isopentyl)Gly = CC(C)CCNCC(=O)O; X3 = O=C([C@H](CCCCO)N[*:1])[*:2]; Hyp = O=C(O)[C@@H]1C[C@@H](O)CN1; NMeF = CN[C@@H](Cc1ccccc1)C(=O)O; NMeGABA = CN(CCCC(=O)[*:2])[*:1]; NMeI = CC[C@H](C)[C@H](NC)C(=O)O; hPhe = N[C@@H](CCc1ccccc1)C(=O)O; NMeL = CN[C@@H](CC(C)C)C(=O)O; dNMeL = CN[C@H](CC(C)C)C(=O)O; Propyl(2R-OH) = C[C@@H](O)C*; NMeNva = CCC[C@H](NC)C(=O)O; NMeV = CN[C@H](C(=O)O)C(C)C; NMeS = CN[C@@H](CO)C(=O)O; Pip = O=C(O)[C@@H]1CCCCN1; NMeA = CN[C@@H](C)C(=O)O; Piperidide = C1CCN(*)CC1; NPrGly = CCCNCC(=O)O; Sar = CNCC(=O)O; tBu = CC(C)(C)*; Propyl = CCC*

What is called Papp A→B is how fast a substance crosses the layer from the apical side. The low end stands for slow passage, the high end for fast passage.

A short description of the first series: Caco-2 membrane permeability, improved method as used in the following Examples (96-well, 20 to 24 h preincubation). It counts as in vitro ADME. To be noted: human, Caco-2, Caco-2. Put shortly: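 Papp (cm/sec) was derived from LC/MS of basal samples collected 180 min after apical dosing in FaSSIF/HBSS pH 6.0 with 1% DMSO, against a basal HBSS pH 7.4 receiver containing 4% BSA. Three-week Caco-2 cultures were first preincubated with compound in DMEM+FaSSIF at 37 °C for 20–24 h.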
Take `CC(C)C[C@@H]1NC(=O)[C@H](CC(C)C)N(C)C(=O)CN(C)C(=O)[C@H]([C@@H](C)O)NC(=O)[C@H](CC(C)C)N(C)C(=O)[C@H](CCc2ccc(Cl)cc2)NC(=O)[C@H](C)N(C)C(=O)[C@@H](C(C)C)NC(=O)C[C@@H](C(=O)N2CCCCC2)NC(=O)[C@H](C(C)C)N(C)C(=O)[C@H](Cc2ccccc2)N(C)C1=O` [pd360] ([dV][NMeA][hPhe(4-Cl)][NMeL]T[Sar][NMeL]L[NMeF][NMeV]D-Piperidide; lactam N-11): the apical-to-basolateral permeability (Papp A→B) at 180 min stood at 1.6 ×10⁻⁶ cm/s.

`CC(C)C[C@H]1C(=O)N[C@@H](C(C)C)C(=O)N(C)[C@@H](Cc2ccccc2)C(=O)N(C)[C@@H](Cc2ccccc2)C(=O)N[C@@H](COC(C)(C)C)C(=O)N(C)[C@@H](CC(C)C)C(=O)N[C@@H](COC[C@@H](C)O)C(=O)N(C)[C@@H](CC(C)C)C(=O)N(C)[C@@H](CC(C)C)C(=O)N[C@H](C(=O)N2CCCCC2)CC(=O)N(C)CCCC(=O)N1C` [pd493] ([NMeGABA][NMeL]V[NMeF][NMeF]S(tBu)[NMeL]S(Propyl(2R-OH))[NMeL][NMeL]D-Piperidide; lactam N-11) displayed a Papp A→B at 180 min of 1.3 ×10⁻⁶ cm/s.

On to `CC[C@H](C)[C@@H]1NC(=O)[C@H](Cc2ccccc2)N(C)C(=O)CN(C)C(=O)C[C@@H](C(=O)N2CCCCC2)NC(=O)[C@H](C(C)C)N(C)C(=O)[C@H](CCc2ccccc2Cl)NC(=O)[C@H](CC(C)C)N(C)C(=O)[C@H](CC(C)C)N(C)C(=O)CN(C)C(=O)[C@H]([C@@H](C)O)NC(=O)[C@H](CC(C)C)N(C)C1=O` [pd354] ([Sar][NMeF]I[NMeL]T[Sar][NMeL][NMeL][X14][NMeV]D-Piperidide; lactam N-11), for which the Papp A→B at 180 min turned out to be 1.5 ×10⁻⁶ cm/s.

The molecule `CC(C)C[C@@H]1NC(=O)[C@H](Cc2ccccc2)N(C)C(=O)[C@@H](C(C)C)NC(=O)C[C@@H](C(=O)N2CCCCC2)NC(=O)[C@H](C(C)C)N(C)C(=O)[C@H](Cc2ccccc2)N(C)C(=O)[C@H](COC(C)(C)C)NC(=O)[C@H](CC(C)C)N(C)C(=O)CN(C)C(=O)[C@H](CCCCO)NC(=O)[C@H](CC(C)C)N(C)C1=O` [pd450] ([dV][NMeF]L[NMeL][X3][Sar][NMeL]S(tBu)[NMeF][NMeV]D-Piperidide; lactam N-11) came in with a Papp A→B at 180 min of 1.8 ×10⁻⁶ cm/s. This Papp A→B at 180 min and that of the molecule before are within 1.5-fold of each other.

`CC(C)C[C@H]1C(=O)N[C@H](C(=O)N2CCCCC2)CC(=O)N(C)CCCC(=O)N(C)[C@@H](CC(C)C)C(=O)N[C@@H](CCc2ccccc2)C(=O)N(C)[C@@H](CC(C)C)C(=O)N(C)[C@@H](Cc2ccccc2)C(=O)N[C@@H](COC(C)(C)C)C(=O)N(C)[C@@H](CC(C)C)C(=O)N[C@@H]([C@@H](C)O)C(=O)N(C)CC(=O)N1C` [pd317] ([NMeGABA][NMeL][hPhe][NMeL][NMeF]S(tBu)[NMeL]T[Sar][NMeL]D-Piperidide; lactam N-11) gave a Papp A→B at 180 min of 1.8 ×10⁻⁶ cm/s.

`CC(C)C[C@@H]1NC(=O)[C@H](Cc2ccccc2)N(C)C(=O)[C@@H](CC(C)C)NC(=O)C[C@@H](C(=O)N2CCCCC2)NC(=O)[C@H](CC(C)C)N(C)C(=O)[C@H](Cc2ccccc2)N(C)C(=O)[C@H](COC(C)(C)C)NC(=O)[C@H](CC(C)C)N(C)C(=O)CN(C)C(=O)[C@H](CCC(=O)N(C)C)NC(=O)[C@H](CC(C)C)N(C)C1=O` [pd441] ([dL][NMeF]L[NMeL]E(NMe2)[Sar][NMeL]S(tBu)[NMeF][NMeL]D-Piperidide; lactam N-11) showed an apparent permeability from apical to basolateral (Papp A→B) at 180 min of 1.7 ×10⁻⁶ cm/s.

As to `CCC[C@H]1C(=O)N[C@@H](CC(C)C)C(=O)N(C)[C@@H](CC(C)C)C(=O)N[C@@H]([C@@H](C)O)C(=O)N2CCC[C@H]2C(=O)N(C)[C@@H](CC(C)C)C(=O)N[C@@H]([C@@H](C)CC)C(=O)N(C)[C@@H](CC(C)C)C(=O)N2C[C@H](OCC)C[C@H]2C(=O)N[C@H](C(=O)N2CCCCC2)CC(=O)N(C)[C@H](CC(C)C)C(=O)N1C` [pd382] ([dNMeL][NMeNva]L[NMeL]TP[NMeL]I[NMeL][Hyp](Et)D-Piperidide; lactam N-11), the Papp A→B at 180 min is 4.8 ×10⁻⁶ cm/s.

Molecule `CC[C@H](C)[C@H]1C(=O)N[C@@H](C(C)C)C(=O)N(C)CC(=O)N(C)[C@@H](CC(C)C)C(=O)N[C@H](C(=O)N2CCCCC2)CC(=O)N(C)[C@@H](C)C(=O)N[C@@H](COC[C@@H](C)O)C(=O)N(C)[C@H](CC(C)C)C(=O)N(C)[C@@H](Cc2ccccc2)C(=O)N[C@@H](CC(C)C)C(=O)N(C)[C@@H](Cc2ccccc2)C(=O)N1C` [pd495] ([NMeA]S(Propyl(2R-OH))[dNMeL][NMeF]L[NMeF][NMeI]V[Sar][NMeL]D-Piperidide; lactam N-11) displayed an apical-to-basolateral permeability (Papp A→B) at 180 min of 3.7 ×10⁻⁶ cm/s.

The molecule `CCO[C@@H]1C[C@H]2C(=O)N3CCCC[C@H]3C(=O)N[C@@H](COC(C)(C)C)C(=O)N(C)[C@@H](CC(C)C)C(=O)N[C@@H]([C@@H](C)O)C(=O)N(C)[C@@H](CC(C)C)C(=O)N(C)[C@@H](CC(C)C)C(=O)N(C)[C@@H](CC(C)C)C(=O)N[C@H](C(=O)N3CCCCC3)CC(=O)N[C@H](C(C)C)C(=O)N(C)[C@@H]([C@@H](C)CC)C(=O)N2C1` [pd383] ([dV][NMeI][Hyp](Et)[Pip]S(tBu)[NMeL]T[NMeL][NMeL][NMeL]D-Piperidide; lactam N-11) showed a Papp A→B at 180 min of 2.8 ×10⁻⁶ cm/s.

Regarding `CCCOC[C@H]1C(=O)N[C@@H](Cc2ccc(N(C)C)nc2)C(=O)N(C)[C@@H](Cc2cccc(Cl)c2)C(=O)N(C)[C@@H](C)C(=O)N[C@@H]([C@@H](C)O)C(=O)N(CCC(C)C)CC(=O)N(C)[C@@H](C(C)C)C(=O)N[C@H](C(=O)N2CCCCC2)CC(=O)N(C)[C@@H](C)C(=O)N[C@@H](CC(C)C)C(=O)N(C)[C@@H](CC(C)C)C(=O)N1C` [pd401] ([NMeA]L[NMeL][NMeS](Propyl)[3Pal(6-NMe2)][NMePhe(3-Cl)][NMeA]T[N(isopentyl)Gly][NMeV]D-Piperidide; lactam N-11), the apical-to-basolateral permeability (Papp A→B) at 180 min is 2.9 ×10⁻⁶ cm/s. This Papp A→B at 180 min and that of the molecule before are within 1.5-fold of each other.

In the case of `CCCN1CC(=O)N(C)[C@@H](CC(C)C)C(=O)N[C@H](C(=O)N2CCCCC2)CC(=O)N(C)[C@@H](C)C(=O)N[C@@H](COC[C@@H](C)O)C(=O)N(C)[C@@H](CC(C)C)C(=O)N(C)[C@@H](Cc2cccc(Cl)c2)C(=O)N[C@@H](CC(C)C)C(=O)N(C)[C@@H](Cc2ccccc2)C(=O)N(C)[C@@H]([C@@H](C)CC)C(=O)N[C@@H]([C@@H](C)O)C1=O` [pd425] ([NMeA]S(Propyl(2R-OH))[NMeL][NMePhe(3-Cl)]L[NMeF][NMeI]T[NPrGly][NMeL]D-Piperidide; lactam N-11), the Papp A→B at 180 min worked out at 1.2 ×10⁻⁶ cm/s.

The series is the same for the next values; noted with them: human, Caco-2, Caco-2 (cm/sec).
`CC[C@H](C)[C@@H]1NC(=O)[C@H](CC(C)C)N(C)C(=O)CCCN(C)C(=O)C[C@@H](C(=O)N2CCCCC2)NC(=O)[C@H](CC(C)C)N(C)C(=O)[C@H](C)N(C)C(=O)[C@H](Cc2ccc(O)cc2)NC(=O)[C@H](CC(C)C)N(C)C(=O)[C@H](COC(C)(C)C)NC(=O)[C@H](CC(C)C)N(C)C(=O)[C@H](Cc2ccccc2)N(C)C1=O` [pd129] ([NMeGABA][NMeL]I[NMeF][NMeL]S(tBu)[NMeL]Y[NMeA][NMeL]D-Piperidide; lactam N-11) had an apical-to-basolateral permeability (Papp A→B) at 180 min of 0.16 ×10⁻⁶ cm/s.

Regarding `CC(C)C[C@@H]1NC(=O)[C@H](Cc2ccccc2)N(C)C(=O)C[C@@H](C(=O)N2CCCCC2)NC(=O)[C@H](CC(C)C)N(C)C(=O)CN(C)C(=O)[C@H]([C@@H](C)O)NC(=O)[C@H](Cc2ccccc2)N(C)C(=O)[C@H](Cc2ccccc2)N(C)C(=O)[C@H](CC(C)C)NC(=O)[C@H](Cc2ccccc2)N(C)C(=O)[C@H](CC(C)C)N(C)C1=O` [pd227] ([NMeF]L[NMeL][NMeF]L[NMeF][NMeF]T[Sar][NMeL]D-Piperidide; lactam N-11), the apparent permeability from apical to basolateral (Papp A→B) at 180 min was found to be 0.61 ×10⁻⁶ cm/s.

In turn, `CC(C)C[C@@H]1NC(=O)[C@H](Cc2ccccc2)N(C)C(=O)[C@@H]2CCCN2C(=O)C[C@@H](C(=O)N2CCCCC2)NC(=O)[C@H](Cc2ccccc2)N(C)C(=O)[C@H](Cc2ccccc2)N(C)C(=O)[C@H](COC(C)(C)C)NC(=O)[C@H](CC(C)C)N(C)C(=O)CN(C)C(=O)[C@H]([C@@H](C)O)NC(=O)[C@H](CC(C)C)N(C)C1=O` [pd203] (P[NMeF]L[NMeL]T[Sar][NMeL]S(tBu)[NMeF][NMeF]D-Piperidide; lactam N-11) came in with a Papp A→B at 180 min of 2.1 ×10⁻⁶ cm/s.

In turn, `CCCN1CC(=O)N(C)[C@@H](Cc2ccccc2)C(=O)N[C@@H]([C@@H](C)CC)C(=O)N(C)[C@@H](Cc2ccccc2)C(=O)N[C@@H]([C@@H](C)O)C(=O)N(C)CC(=O)N(C)[C@@H](Cc2ccccc2)C(=O)N(C)[C@@H](CC(C)C)C(=O)N[C@@H](COC(C)(C)C)C(=O)N(C)[C@@H](C(C)C)C(=O)N[C@H](C(=O)N2CCCCC2)CC1=O` [pd195] ([NPrGly][NMeF]I[NMeF]T[Sar][NMeF][NMeL]S(tBu)[NMeV]D-Piperidide; lactam N-11) gave a Papp A→B at 180 min of 5 ×10⁻⁶ cm/s.

In turn, `CC(C)C[C@@H]1NC(=O)[C@H](Cc2ccccc2)N(C)C(=O)[C@H](COC(C)(C)C)NC(=O)[C@H](Cc2ccccc2)N(C)C(=O)[C@H](C)N(C)C(=O)[C@H](CC(C)C)N(C)C(=O)[C@@H](C)NC(=O)C[C@@H](C(=O)N2CCCCC2)NC(=O)[C@H](Cc2ccccc2)N(C)C(=O)[C@H]([C@@H](C)O)NC(=O)[C@H](CC(C)C)N(C)C1=O` [pd220] ([dA][NMeL][NMeA][NMeF]S(tBu)[NMeF]L[NMeL]T[NMeF]D-Piperidide; lactam N-11) yielded a Papp A→B at 180 min of 1.1 ×10⁻⁶ cm/s.

In turn, `CC(C)C[C@H]1C(=O)N(C)[C@@H](Cc2ccccc2)C(=O)N[C@@H](COC(C)(C)C)C(=O)N(C)[C@@H](C)C(=O)N[C@H](C(=O)N2CCCCC2)CC(=O)N(C)[C@@H](C)C(=O)N(C)[C@@H](Cc2ccccc2)C(=O)N[C@@H](CCc2ccccc2)C(=O)N(C)[C@@H](CC(C)C)C(=O)N[C@@H]([C@@H](C)O)C(=O)N(C)CC(=O)N1C` [pd183] ([NMeA][NMeF][hPhe][NMeL]T[Sar][NMeL][NMeF]S(tBu)[NMeA]D-Piperidide; lactam N-11) yielded an apparent permeability from apical to basolateral (Papp A→B) at 180 min of 2.1 ×10⁻⁶ cm/s.
